{"source": "paper PMC9598407", "about": "“Identification of Staphylococcus aureus Penicillin Binding Protein 4 (PBP4) Inhibitors” (Antibiotics, 2022)", "key": {"[1]": {"test_system": "S. aureus strain CRB∆pbp4", "experiment": "Fractional inhibitory concentration checkerboard, ceftobiprole + putative PBP4 inhibitor, strain CRB∆pbp4", "format": "cell-based, Staphylococcus aureus"}, "[2]": {"molecular_target": "S. aureus PBP2a (Staphylococcus aureus, UniProt P07944)", "sequence (P07944 whole entry)": "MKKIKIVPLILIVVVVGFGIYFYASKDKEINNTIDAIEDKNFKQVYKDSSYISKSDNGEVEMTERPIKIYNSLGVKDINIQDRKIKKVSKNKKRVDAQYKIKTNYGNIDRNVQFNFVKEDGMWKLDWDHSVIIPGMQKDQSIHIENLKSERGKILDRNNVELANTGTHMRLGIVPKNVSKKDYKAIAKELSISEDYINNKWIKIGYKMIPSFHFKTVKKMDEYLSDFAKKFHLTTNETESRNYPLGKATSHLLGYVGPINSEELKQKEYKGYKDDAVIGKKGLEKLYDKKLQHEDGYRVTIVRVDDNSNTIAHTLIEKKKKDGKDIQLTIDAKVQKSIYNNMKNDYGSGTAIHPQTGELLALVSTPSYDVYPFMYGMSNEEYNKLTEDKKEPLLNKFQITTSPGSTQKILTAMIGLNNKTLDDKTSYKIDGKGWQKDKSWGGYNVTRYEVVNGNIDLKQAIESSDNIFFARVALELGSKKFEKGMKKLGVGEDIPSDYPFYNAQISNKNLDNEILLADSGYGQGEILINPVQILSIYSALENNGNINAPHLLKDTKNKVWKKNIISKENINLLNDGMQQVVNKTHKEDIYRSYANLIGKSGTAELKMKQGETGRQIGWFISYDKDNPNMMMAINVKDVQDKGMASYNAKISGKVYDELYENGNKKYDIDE", "experiment": "BOCILLIN FL fluorescence polarization assay, PBP2A", "format": "binding", "details": "50 µM compound; read-out: Inhibition of BOCILLIN FL labeling of PBP2A", "description": "A dose response study was conducted (Figure 4B) in which PBP4 was preincubated with 0, 3.125, 6.25, 12.5, 25, or 50 µM of ampicillin, kanamycin, or 9314848.\nFirst, fluorescence polarization assays were performed as previously described, but with minor modifications. Briefly, the indicated amount of the putative PBP4 inhibitor or control antibiotic was incubated with 1 µM recombinant B. subtilis PBP4 or S. aureus PBP2a in potassium phosphate buffer (40 mM K2HPO4 and 10 mM KH2PO4) for 1 h in black 96-well microtiter plates (Corning Life Sciences, Corning, NY, USA). Following incubation, 1 µM (final concentration) BOCILLIN FL penicillin was added, and the mixture was incubated for 30 min. BOCILLIN FL fluorescence polarization was measured at (495 nm excitation and 545 nm emission) in a SpectraMax M5 multimode plate reader (Molecular Devices, San Jose, CA, USA). […] Second, gel electrophoresis and fluorescence detection was used to measure BOCILLIN FL labeling of PBP4 treated with the known PBP4 inhibitor cefoxitin (positive control), kanamycin (negative control) or 9314848 (test compound), as previously described but with minor modifications. […] The percentage BOCILLIN FL binding inhibition was then calculated as the normalized band intensity of antibiotic/compound treated sample as compared to the control sample (PBP4 + BOCILLIN FL in the absence of compound)."}, "[3]": {"test_system": "pbp4 expression in S. aureus USA300", "experiment": "qRT-PCR of pbp4 transcript titers, USA300", "format": "cell-based, Staphylococcus aureus", "details": "25 µM compound, 3 h", "source_text": "Given that each of the six compounds appeared to affect PBP4-mediated antibiotic resistance, we considered that their effects may be modulated by either inhibiting the protein’s function or by reducing pbp4 expression, the latter of which may be readily overcome by regulatory mutations that could in-turn easily result in resistance. Thus, we sought to prioritize compounds that may affect the protein’s function and de-prioritize compounds that affect the protein’s expression. Quantitative real-time reverse transcriptase PCR (qRT-PCR) was used to measure the pbp4 transcript titers within USA300 and CRB cells following compound treatment (Figure 2). […] We chose to focus the remainder of our studies on 9314848 (Figure 3A) because the molecule appeared the more druggable and chemically tractable for downstream structure activity relationship studies.\nPBP4 transcript titers of bacterial cells exposed to putative PBP4 inhibitors were measured using real time quantitative PCR (RT-qPCR), as previously described. […] Bacterial RNA was amplified and measured using PerfeCTa SYBR Green FastMix and qScript cDNA SuperMix kits following the manufacturer’s recommendations (QuantaBio, Beverly, MA, USA). […]"}}, "note": "Entries after “also recorded” stand apart in the source; their conditions may differ."}
{"smiles": "CC1CCN(C(=O)c2cccc(NC(=O)Nc3ccc(Cl)cc3)c2)CC1", "note": "[Compound 9314848]", "values": [{"measurement": "MIC", "setting": "[1]; Staphylococcus aureus, read-out: CRB∆pbp4 Alone Cmpd (putative PBP4 inhibitor MIC alone)", "result": 400, "unit": "µM"}, {"measurement": "CRB∆pbp4 Combination BPR (ceftobiprole MIC in combination)", "setting": "[1]; strain CRB∆pbp4, ceftobiprole combined with the indicated putative PBP4 inhibitor", "result": 0.125, "unit": "µg/mL"}, {"measurement": "CRB∆pbp4 Combination Cmpd (compound concentration in combination)", "setting": "[1]; strain CRB∆pbp4, compound combined with ceftobiprole", "result": 25, "unit": "µM"}, {"measurement": "CRB∆pbp4 Fold-decrease in ceftobiprole resistance in combination", "setting": "[1]; strain CRB∆pbp4, in combination with the indicated putative PBP4 inhibitor", "result": 2, "unit": "fold"}, {"measurement": "inhibition at 50 µM", "setting": "[2]", "result": "25.8 ± 11.4", "unit": "%"}, {"measurement": "pbp4 expression (mRNA titer, qRT-PCR)", "setting": "[3]", "result": "did not seem to affect pbp4 expression; also recorded: did not significantly impact pbp4 transcription"}]}
